According to ChEMBL document CHEMBL5360540, “Antitumor effect of 3-(quinolin-2-ylmethylene)-4,6-dimethyl-5-hydroxy-7-azaoxindole down-regulating the Gas6-Axl axis” (Eur J Med Chem, 2023):

How the values were obtained:
[1] = biological target: Mast/stem cell growth factor receptor Kit (Homo sapiens, UniProt P10721); assay: Inhibition of human c-Kit using MEK1 as substrate incubated for 40 mins by gamma33P-ATP based scintillation counter analysis
[2] = biological target: Platelet-derived growth factor receptor beta (Homo sapiens, UniProt P09619); assay: Inhibition of human PDGFRbeta using MEK1 as substrate incubated for 40 mins by gamma33P-ATP based scintillation counter analysis
[3] = tested on: PANC-1; assay: Antitumor activity against human PANC-1 cells xenografted in BALB/c nude mouse assessed as animal survival rate at 3 mg/kg, ip administered 6 times a week and measured for 100 days; assay type: functional; conditions: PANC-1, 2400 h, time 100 day
[4] = biological target: Vascular endothelial growth factor receptor 2 (Homo sapiens, UniProt P35968); assay: Inhibition of human VEGFR2 using MEK1 as substrate incubated for 40 mins by gamma33P-ATP based scintillation counter analysis
[5] = biological target: Macrophage colony-stimulating factor 1 receptor (Homo sapiens, UniProt P07333); assay: Inhibition of human CSF1R using MEK1 as substrate incubated for 40 mins by gamma33P-ATP based scintillation counter analysis
[6] = biological target: Epidermal growth factor receptor (Homo sapiens, UniProt P00533); assay: Inhibition of human EGFR using MEK1 as substrate incubated for 40 mins by gamma33P-ATP based scintillation counter analysis
[7] = biological target: T1, Receptor-type tyrosine-protein kinase FLT3 (Homo sapiens, UniProt P36888); assay: Inhibition of human FLT3 using MEK1 as substrate incubated for 40 mins by gamma33P-ATP based scintillation counter analysis
T1 sequence (P36888 whole entry): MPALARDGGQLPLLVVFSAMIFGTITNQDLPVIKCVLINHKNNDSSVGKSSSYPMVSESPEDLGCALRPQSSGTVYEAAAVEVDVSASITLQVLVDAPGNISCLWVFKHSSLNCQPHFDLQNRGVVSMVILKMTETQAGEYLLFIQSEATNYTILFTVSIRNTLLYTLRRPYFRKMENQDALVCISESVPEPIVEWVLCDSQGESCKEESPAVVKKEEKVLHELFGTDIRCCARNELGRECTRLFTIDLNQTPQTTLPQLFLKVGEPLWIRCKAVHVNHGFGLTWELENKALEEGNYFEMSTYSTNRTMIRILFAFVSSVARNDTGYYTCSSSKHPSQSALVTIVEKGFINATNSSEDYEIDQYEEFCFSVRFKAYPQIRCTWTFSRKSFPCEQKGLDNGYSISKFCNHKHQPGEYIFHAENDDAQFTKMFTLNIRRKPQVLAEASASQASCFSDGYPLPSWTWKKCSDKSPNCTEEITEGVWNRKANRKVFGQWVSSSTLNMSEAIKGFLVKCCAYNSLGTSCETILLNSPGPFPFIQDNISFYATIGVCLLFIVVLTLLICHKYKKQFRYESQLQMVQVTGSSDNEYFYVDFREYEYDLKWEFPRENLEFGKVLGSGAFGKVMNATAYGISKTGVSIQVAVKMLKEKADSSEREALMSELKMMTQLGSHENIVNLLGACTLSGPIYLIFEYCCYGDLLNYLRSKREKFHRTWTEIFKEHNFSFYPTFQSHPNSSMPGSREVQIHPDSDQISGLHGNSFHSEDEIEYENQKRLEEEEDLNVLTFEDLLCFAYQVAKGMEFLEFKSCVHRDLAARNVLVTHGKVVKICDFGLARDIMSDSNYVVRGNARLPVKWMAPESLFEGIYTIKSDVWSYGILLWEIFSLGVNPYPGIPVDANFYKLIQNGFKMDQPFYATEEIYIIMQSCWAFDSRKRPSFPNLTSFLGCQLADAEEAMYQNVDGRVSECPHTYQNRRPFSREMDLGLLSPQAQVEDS

Sequence of Mast/stem cell growth factor receptor Kit (P10721 whole entry): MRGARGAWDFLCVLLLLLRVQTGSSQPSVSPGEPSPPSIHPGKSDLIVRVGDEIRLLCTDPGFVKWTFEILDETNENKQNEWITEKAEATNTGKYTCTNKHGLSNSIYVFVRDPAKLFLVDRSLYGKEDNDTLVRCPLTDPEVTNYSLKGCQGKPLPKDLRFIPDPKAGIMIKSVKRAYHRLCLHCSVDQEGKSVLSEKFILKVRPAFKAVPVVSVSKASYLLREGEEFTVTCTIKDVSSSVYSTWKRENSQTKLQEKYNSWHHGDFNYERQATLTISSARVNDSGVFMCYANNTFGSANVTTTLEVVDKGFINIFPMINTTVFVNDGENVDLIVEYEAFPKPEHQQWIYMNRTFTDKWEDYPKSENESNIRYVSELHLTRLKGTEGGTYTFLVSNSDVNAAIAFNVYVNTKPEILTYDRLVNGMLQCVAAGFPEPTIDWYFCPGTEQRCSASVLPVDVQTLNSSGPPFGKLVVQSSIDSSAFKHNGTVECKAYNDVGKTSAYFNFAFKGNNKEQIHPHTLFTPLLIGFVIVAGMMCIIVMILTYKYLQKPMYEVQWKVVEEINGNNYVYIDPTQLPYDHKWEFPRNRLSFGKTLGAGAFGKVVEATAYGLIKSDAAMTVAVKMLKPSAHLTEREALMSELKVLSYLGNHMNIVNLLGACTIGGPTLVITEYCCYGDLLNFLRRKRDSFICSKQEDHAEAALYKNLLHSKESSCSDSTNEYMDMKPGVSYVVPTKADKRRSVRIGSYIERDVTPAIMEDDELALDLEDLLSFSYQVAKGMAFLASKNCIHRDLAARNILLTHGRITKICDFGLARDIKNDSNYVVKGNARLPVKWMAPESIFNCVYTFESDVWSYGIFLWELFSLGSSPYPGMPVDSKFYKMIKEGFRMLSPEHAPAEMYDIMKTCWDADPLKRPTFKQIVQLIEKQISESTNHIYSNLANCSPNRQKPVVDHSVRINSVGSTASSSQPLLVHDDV
Sequence of Epidermal growth factor receptor (P00533 whole entry): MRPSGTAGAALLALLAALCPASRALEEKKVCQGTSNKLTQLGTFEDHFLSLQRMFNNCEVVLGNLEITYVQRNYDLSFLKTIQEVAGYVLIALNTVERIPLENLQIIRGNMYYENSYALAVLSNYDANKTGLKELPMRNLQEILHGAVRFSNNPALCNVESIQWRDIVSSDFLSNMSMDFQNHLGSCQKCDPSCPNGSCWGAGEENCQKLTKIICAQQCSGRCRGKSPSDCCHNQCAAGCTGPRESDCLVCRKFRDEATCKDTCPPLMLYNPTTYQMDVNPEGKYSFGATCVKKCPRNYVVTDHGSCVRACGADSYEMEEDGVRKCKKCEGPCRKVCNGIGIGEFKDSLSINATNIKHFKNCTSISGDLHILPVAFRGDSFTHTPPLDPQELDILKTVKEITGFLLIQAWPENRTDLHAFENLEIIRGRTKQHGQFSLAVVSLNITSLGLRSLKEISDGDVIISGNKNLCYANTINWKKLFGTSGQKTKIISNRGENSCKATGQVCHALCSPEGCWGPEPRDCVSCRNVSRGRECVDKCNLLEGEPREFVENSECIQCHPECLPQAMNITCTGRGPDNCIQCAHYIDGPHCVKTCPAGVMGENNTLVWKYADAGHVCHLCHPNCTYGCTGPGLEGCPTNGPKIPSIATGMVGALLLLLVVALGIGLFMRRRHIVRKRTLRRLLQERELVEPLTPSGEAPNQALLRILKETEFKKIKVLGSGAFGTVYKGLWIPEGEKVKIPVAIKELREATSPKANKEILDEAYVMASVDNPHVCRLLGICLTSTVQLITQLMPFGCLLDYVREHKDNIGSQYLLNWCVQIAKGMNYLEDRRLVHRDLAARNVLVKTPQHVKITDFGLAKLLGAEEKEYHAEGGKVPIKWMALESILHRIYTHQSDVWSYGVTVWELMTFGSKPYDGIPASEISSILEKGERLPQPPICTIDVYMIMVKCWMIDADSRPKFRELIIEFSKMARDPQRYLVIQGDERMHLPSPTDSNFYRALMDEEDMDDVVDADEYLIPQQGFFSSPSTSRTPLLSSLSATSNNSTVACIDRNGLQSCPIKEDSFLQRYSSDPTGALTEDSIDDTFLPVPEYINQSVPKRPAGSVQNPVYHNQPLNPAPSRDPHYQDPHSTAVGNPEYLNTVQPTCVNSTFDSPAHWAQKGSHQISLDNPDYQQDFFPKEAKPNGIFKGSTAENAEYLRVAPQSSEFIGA
Sequence of Vascular endothelial growth factor receptor 2 (P35968 whole entry): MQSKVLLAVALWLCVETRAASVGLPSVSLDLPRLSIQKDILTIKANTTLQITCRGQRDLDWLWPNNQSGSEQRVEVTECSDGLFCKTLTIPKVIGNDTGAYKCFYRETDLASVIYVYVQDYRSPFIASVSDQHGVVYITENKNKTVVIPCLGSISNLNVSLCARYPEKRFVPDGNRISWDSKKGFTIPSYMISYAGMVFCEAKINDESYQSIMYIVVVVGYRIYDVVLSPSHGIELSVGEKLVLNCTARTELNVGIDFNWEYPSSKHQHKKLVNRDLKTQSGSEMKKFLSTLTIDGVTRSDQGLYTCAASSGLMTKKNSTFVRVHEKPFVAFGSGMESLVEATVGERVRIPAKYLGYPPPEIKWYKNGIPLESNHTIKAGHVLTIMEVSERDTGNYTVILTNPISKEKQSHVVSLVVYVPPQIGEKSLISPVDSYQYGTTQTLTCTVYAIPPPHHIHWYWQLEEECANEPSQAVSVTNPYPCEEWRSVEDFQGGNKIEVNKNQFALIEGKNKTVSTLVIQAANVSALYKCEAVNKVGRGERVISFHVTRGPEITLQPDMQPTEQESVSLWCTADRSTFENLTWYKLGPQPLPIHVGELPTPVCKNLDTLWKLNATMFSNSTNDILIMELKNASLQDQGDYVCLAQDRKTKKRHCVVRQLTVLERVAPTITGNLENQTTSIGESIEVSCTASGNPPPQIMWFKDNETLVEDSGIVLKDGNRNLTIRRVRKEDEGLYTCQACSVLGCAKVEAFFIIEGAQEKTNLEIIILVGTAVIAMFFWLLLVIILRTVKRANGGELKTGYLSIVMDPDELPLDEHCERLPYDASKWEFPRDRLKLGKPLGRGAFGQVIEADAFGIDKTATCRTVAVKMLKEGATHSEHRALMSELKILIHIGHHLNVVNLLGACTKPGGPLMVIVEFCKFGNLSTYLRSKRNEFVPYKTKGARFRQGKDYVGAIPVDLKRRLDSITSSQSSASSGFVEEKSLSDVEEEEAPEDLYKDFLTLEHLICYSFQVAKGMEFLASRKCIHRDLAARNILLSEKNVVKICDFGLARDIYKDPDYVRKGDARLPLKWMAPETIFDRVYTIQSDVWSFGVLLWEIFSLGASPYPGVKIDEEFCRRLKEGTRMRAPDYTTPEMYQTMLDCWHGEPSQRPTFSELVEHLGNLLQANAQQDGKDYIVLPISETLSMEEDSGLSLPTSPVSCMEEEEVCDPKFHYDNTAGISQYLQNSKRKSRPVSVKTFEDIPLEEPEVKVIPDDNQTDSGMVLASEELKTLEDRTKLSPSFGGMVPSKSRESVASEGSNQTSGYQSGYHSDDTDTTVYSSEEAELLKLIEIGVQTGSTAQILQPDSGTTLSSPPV
Sequence of Platelet-derived growth factor receptor beta (P09619 whole entry): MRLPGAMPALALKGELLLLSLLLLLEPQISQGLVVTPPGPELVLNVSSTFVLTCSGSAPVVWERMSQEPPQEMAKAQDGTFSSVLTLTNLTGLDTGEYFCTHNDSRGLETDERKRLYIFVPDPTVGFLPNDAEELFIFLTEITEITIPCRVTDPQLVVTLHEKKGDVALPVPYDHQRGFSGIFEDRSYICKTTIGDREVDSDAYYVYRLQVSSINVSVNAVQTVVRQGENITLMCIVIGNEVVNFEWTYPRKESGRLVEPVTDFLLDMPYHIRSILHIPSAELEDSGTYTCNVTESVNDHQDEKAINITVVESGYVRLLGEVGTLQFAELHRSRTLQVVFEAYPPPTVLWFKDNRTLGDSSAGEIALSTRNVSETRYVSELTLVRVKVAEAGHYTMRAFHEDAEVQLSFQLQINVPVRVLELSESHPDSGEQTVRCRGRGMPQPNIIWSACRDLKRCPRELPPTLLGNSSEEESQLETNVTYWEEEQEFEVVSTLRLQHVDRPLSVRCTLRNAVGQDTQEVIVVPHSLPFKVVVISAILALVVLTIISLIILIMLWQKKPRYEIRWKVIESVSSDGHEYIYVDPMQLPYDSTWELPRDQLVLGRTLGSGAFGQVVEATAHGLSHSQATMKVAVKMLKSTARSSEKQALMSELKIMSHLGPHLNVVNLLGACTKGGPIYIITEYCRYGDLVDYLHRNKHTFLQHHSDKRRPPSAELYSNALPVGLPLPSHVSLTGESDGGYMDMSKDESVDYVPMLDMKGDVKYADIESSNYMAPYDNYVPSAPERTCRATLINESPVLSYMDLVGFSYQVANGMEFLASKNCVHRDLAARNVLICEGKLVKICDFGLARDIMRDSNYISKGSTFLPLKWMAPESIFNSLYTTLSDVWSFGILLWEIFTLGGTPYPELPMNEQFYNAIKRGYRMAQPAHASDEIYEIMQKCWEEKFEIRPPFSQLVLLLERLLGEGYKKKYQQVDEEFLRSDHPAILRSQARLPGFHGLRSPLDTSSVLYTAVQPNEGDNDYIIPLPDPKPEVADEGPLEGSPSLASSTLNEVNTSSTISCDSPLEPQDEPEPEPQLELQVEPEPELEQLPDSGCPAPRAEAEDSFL

With `Cc1nc2c(c(C)c1O)/C(=C/c1ccc3ccccc3n1)C(=O)N2` the IC50 [1] was 5.7 µM, the IC50 [2] was 1000 nM and the survival at 3 mg/kg [3] was 100%. For the same compound, the IC50 [4] was > 10 µM, the IC50 [5] was 12.9 µM and the IC50 [6] was 18.8 µM. For the same compound, the IC50 [7] was > 10 µM.
